Laboratory results from PubChem BioAssay AID2060899 (Molecular Pharmacology Branch, DTP, NCI, 2025).

Test system: 565726-208-R1-J5-PDC complex spheroids, growth inhibition
Assay: Anticancer human tumor 565726-208-R1-J5-PDC patient-derived pancreatic adenocarcinoma cell line growth inhibition [RAS]
Conditions: for IC50: curve of first compound; for viability, T/C: stronger effect = lower value
Method in brief: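 Multi-cell-type spheroids: tumor cells plus HUVEC endothelial cells and mesenchymal stem cells. RAS-pathway inhibitors were combined with targeted agents, each dosed in half-log steps down from clinical Cmax, or from 10 microM when Cmax was unknown.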

[1] = second compound 0.0316 µM, first compound 0.0316 µM
[2] = second compound 0.0316 µM, first compound 0.1 µM
[3] = second compound 0.0316 µM, first compound 0.316 µM
[4] = second compound 0.0316 µM, first compound 1 µM
[5] = second compound 0.1 µM, first compound 0.0316 µM
[6] = second compound 0.1 µM, first compound 0.1 µM
[7] = second compound 0.1 µM, first compound 0.316 µM
[8] = second compound 0.1 µM, first compound 1 µM
[9] = second compound 0.316 µM, first compound 0.0316 µM
[10] = second compound 0.316 µM, first compound 0.1 µM
[11] = second compound 0.316 µM, first compound 0.316 µM
[12] = second compound 0.316 µM, first compound 1 µM
[13] = second compound 1 µM, first compound 0.0316 µM
[14] = second compound 1 µM, first compound 0.1 µM
[15] = second compound 1 µM, first compound 0.316 µM
[16] = second compound 1 µM, first compound 1 µM
[17] = second compound 3.16 µM, first compound 0.0316 µM
[18] = second compound 3.16 µM, first compound 0.1 µM
[19] = second compound 3.16 µM, first compound 0.316 µM
[20] = second compound 3.16 µM, first compound 1 µM
[21] = second compound 10 µM, first compound 0.0316 µM
[22] = second compound 10 µM, first compound 0.1 µM
[23] = second compound 10 µM, first compound 0.316 µM
[24] = second compound 10 µM, first compound 1 µM
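Note: spheroids exposed to compounds for seven days before readout.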
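Throughout, for viability, T/C: 100% = DMSO vehicle control viability.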

In the case of Nc1ccn(C2OC(CO)C(O)C2(F)F)c(=O)n1 (centres undefined) + C#Cc1c(F)ccc2cc(O)cc(-c3ncc4c(N5CC6CCC(C5)N6)nc(OCC56CCCN5CC(F)C6)nc4c3F)c12, the IC50 (second compound 0.0316 µM) is reported as 92.8 nM, the IC50 (second compound 0.1 µM) is reported as 73.8 nM and the IC50 (second compound 0.316 µM) is reported as 273 nM. It also gave an IC50 (second compound 1 µM) of 63.3 nM, an IC50 (second compound 3.16 µM) of 37.5 nM and an IC50 (second compound 10 µM) of 30.3 nM. For the same compound, the viability, T/C (second compound 0.0316 µM, first compound 0.00316 µM) was 101%, the viability, T/C (second compound 0.0316 µM, first compound 0.01 µM) was 123% and the viability, T/C [1] was 80.8%. The viability, T/C [2] was 53.5%, the viability, T/C [3] was 46.7% and the viability, T/C [4] was 43.4%. It also gave a viability, T/C (second compound 0.1 µM, first compound 0.00316 µM) of 112%, a viability, T/C (second compound 0.1 µM, first compound 0.01 µM) of 130% and a viability, T/C [5] of 64%. For the same compound, the viability, T/C [6] was 54.6%, the viability, T/C [7] was 42.8% and the viability, T/C [8] was 37.5%. It also gave a viability, T/C (second compound 0.316 µM, first compound 0.00316 µM) of 122%, a viability, T/C (second compound 0.316 µM, first compound 0.01 µM) of 133% and a viability, T/C [9] of 54.9%. The viability, T/C [10] was 61.1%, the viability, T/C [11] was 46.1% and the viability, T/C [12] was 41.1%. It also gave a viability, T/C (second compound 1 µM, first compound 0.00316 µM) of 116%, a viability, T/C (second compound 1 µM, first compound 0.01 µM) of 110% and a viability, T/C [13] of 58.2%. For the same compound, the viability, T/C [14] was 46%, the viability, T/C [15] was 47.8% and the viability, T/C [16] was 39%. It also gave a viability, T/C (second compound 3.16 µM, first compound 0.00316 µM) of 117%, a viability, T/C (second compound 3.16 µM, first compound 0.01 µM) of 99.2% and a viability, T/C [17] of 51.1%. It also gave a viability, T/C [18] of 43.5%, a viability, T/C [19] of 41% and a viability, T/C [20] of 45.7%. For the same compound, the viability, T/C (second compound 10 µM, first compound 0.00316 µM) was 82%, the viability, T/C (second compound 10 µM, first compound 0.01 µM) was 85.8% and the viability, T/C [21] was 48.6%. It also gave a viability, T/C [22] of 47%, a viability, T/C [23] of 48.8% and a viability, T/C [24] of 44.9%.

Work on Cc1nc(N2CCC3(CC2)COC(C)C3N)c(CO)nc1Sc1ccnc(N)c1Cl (centres undefined) + C#Cc1c(F)ccc2cc(O)cc(-c3ncc4c(N5CC6CCC(C5)N6)nc(OCC56CCCN5CC(F)C6)nc4c3F)c12 yielded an IC50 (second compound 0.0316 µM) of over 10000 nM, an IC50 (second compound 0.1 µM) of over 10000 nM and an IC50 (second compound 0.316 µM) of over 10000 nM. For the same compound, the IC50 (second compound 1 µM) was over 10000 nM, the IC50 (second compound 3.16 µM) was 313 nM and the IC50 (second compound 10 µM) was 229 nM. The viability, T/C [1] was 116%, the viability, T/C [2] was 125% and the viability, T/C [3] was 79.6%. It also gave a viability, T/C [4] of 77.1%, a viability, T/C (second compound 0.0316 µM, first compound 3.16 µM) of 90.7% and a viability, T/C (second compound 0.0316 µM, first compound 10 µM) of 104%. It also gave a viability, T/C [5] of 103%, a viability, T/C [6] of 112% and a viability, T/C [7] of 71.6%. The viability, T/C [8] was 72.8%, the viability, T/C (second compound 0.1 µM, first compound 3.16 µM) was 92.4% and the viability, T/C (second compound 0.1 µM, first compound 10 µM) was 101%. For the same compound, the viability, T/C [9] was 130%, the viability, T/C [10] was 108% and the viability, T/C [11] was 74.5%. It also gave a viability, T/C [12] of 67.8%, a viability, T/C (second compound 0.316 µM, first compound 3.16 µM) of 90.2% and a viability, T/C (second compound 0.316 µM, first compound 10 µM) of 80.3%. For the same compound, the viability, T/C [13] was 119%, the viability, T/C [14] was 106% and the viability, T/C [15] was 55.8%. For the same compound, the viability, T/C [16] was 53.4%, the viability, T/C (second compound 1 µM, first compound 3.16 µM) was 57.8% and the viability, T/C (second compound 1 µM, first compound 10 µM) was 71.1%. The viability, T/C [17] was 108%, the viability, T/C [18] was 94.5% and the viability, T/C [19] was 49.6%. For the same compound, the viability, T/C [20] was 42.8%, the viability, T/C (second compound 3.16 µM, first compound 3.16 µM) was 46% and the viability, T/C (second compound 3.16 µM, first compound 10 µM) was 57.3%. It also gave a viability, T/C [21] of 80.9%, a viability, T/C [22] of 66.1% and a viability, T/C [23] of 43.5%. For the same compound, the viability, T/C [24] was 35.9%, the viability, T/C (second compound 10 µM, first compound 3.16 µM) was 34.6% and the viability, T/C (second compound 10 µM, first compound 10 µM) was 33%.
